Data published in ChEMBL document CHEMBL4196193, “Calothrixamides A and B from the Cultured Cyanobacterium Calothrix sp. UIC 10520” (J Nat Prod, 2018).
Activity calls are given as the source filed them. The rule behind the calls is not given here.

How the values were obtained:
Format in all cases: functional, cell-based
MDA-MB-231 [1] = test: Cytotoxicity against human MDA-MB-231 cells at 10 uM after 72 hrs by CellTiter 96 AQueous One Solution Cell Proliferation Assay
OVCAR-3 [2] = test: Cytotoxicity against human OVCAR3 cells at 10 uM after 72 hrs by CellTiter 96 AQueous One Solution Cell Proliferation Assay
MDA-MB-435 [3] = test: Cytotoxicity against human MDA-MB-435 cells at 10 uM after 72 hrs by CellTiter 96 AQueous One Solution Cell Proliferation Assay
MDA-MB-231 [4] = test: Cytotoxicity against human MDA-MB-231 cells after 72 hrs by CellTiter 96 AQueous One Solution Cell Proliferation Assay; conditions: MDA-MB-231, 72 h
OVCAR-3 [5] = test: Cytotoxicity against human OVCAR3 cells after 72 hrs by CellTiter 96 AQueous One Solution Cell Proliferation Assay; conditions: OVCAR-3, 72 h
MDA-MB-435 [6] = test: Cytotoxicity against human MDA-MB-435 cells after 72 hrs by CellTiter 96 AQueous One Solution Cell Proliferation Assay; conditions: MDA-MB-435, 72 h

| SMILES | Activity (MDA-MB-231 [1]) | Activity (OVCAR-3 [2]) | Activity (MDA-MB-435 [3]) | IC50 (MDA-MB-231 [4]) [nM] | IC50 (OVCAR-3 [5]) [nM] | IC50 (MDA-MB-435 [6]) [nM] |
| --- | --- | --- | --- | --- | --- | --- |
| CCCCCC[C@H](C)[C@@H](CCCCCCCCC(C)/C=C\C=C(/C)C(=O)N[C@@H](C)CO)OC(N)=O (some centres undefined) | inactive | inactive | inactive | – | – | – |
| C=CCCCC[C@H](C)[C@@H](CCCCCCCCC(C)/C=C\C=C(/C)C(=O)N[C@@H](C)CO)OC(N)=O (some centres undefined) | inactive | inactive | inactive | – | – | – |
| CC(=O)O[C@H]1C(=O)[C@@]2(C)[C@H]([C@H](OC(=O)c3ccccc3)[C@]3(O)C[C@H](OC(=O)[C@H](O)[C@@H](NC(=O)c4ccccc4)c4ccccc4)C(C)=C1C3(C)C)[C@]1(OC(C)=O)CO[C@@H]1C[C@@H]2O [PACLITAXEL] | – | – | – | 2.6 | 7.5 | 3.1 |
